Experimental data published in article PMC10301570 (Molecules, 2023).
Where two headings read alike, the source gives them in different places.

How the values were obtained:
[1] = Stability in rat serum under storage conditions (autosampler, benchtop, long-term, freeze-thaw); type: in vitro ADME; details: for Autosampler stability, accuracy / Autosampler stability, measured conc. / Benchtop stability, accuracy / Benchtop stability, measured conc. / Freeze-thaw stability, accuracy / Freeze-thaw stability, measured conc. / Long-term stability, accuracy / Long-term stability, measured conc.: rat serum, n = 6; for Autosampler stability, accuracy / Autosampler stability, measured conc.: 4 ± 2 °C, 24 h; for Benchtop stability, accuracy / Benchtop stability, measured conc.: 24 ± 4 °C, 8 h; for Freeze-thaw stability, accuracy / Freeze-thaw stability, measured conc. / Long-term stability, accuracy / Long-term stability, measured conc.: −70 ± 10 °C; for Freeze-thaw stability, accuracy / Freeze-thaw stability, measured conc.: 3 cycles; for Long-term stability, accuracy / Long-term stability, measured conc.: 30 days
Method: Stability studies were performed using three different QC levels including LQC, MQC, and HQC with six replicates. The extracted serum samples were analyzed using different storage conditions including autosampler (4 ± 2 °C for 24 h), bench top stability (24 ± 4 °C for 8 h), and long-term stability (−70 ± 10 °C for 30 days). Freeze-thaw stability was evaluated after subjecting the samples to three cycles of freezing (−70 ± 10 °C for 12 h) and thawing. Stability samples were quantified against fresh calibration and QC samples. The accuracy and precision of stability samples should meet the acceptance criterion of ±15%.

[2] = rat, microsomes, 1 h
Method: (§2) The 0.8 mL reaction mixture was prepared using RLM at 0.5 mg/mL, 40 mM MgCl2, in 50 mM Tris-HCl buffer (pH 7.4). 100 µg/mL of quercetin and t-res was added to the reaction mixture and preincubated in a shaking water bath at 37 °C and 1 mM NADPH was added to the reaction milieu to initiate the reactions. Samples were collected at predetermined time points up to 60 min and processed for LC-MS/MS analysis [54].

[3] = In-vivo pharmacokinetic study in rats after oral administration of EECQ extract; details: serum, oral 400 mg/Kg EECQ, mean ± SD, n = 6; for AUC(0-inf): male, SD, po; for AUC(0-inf) / AUC(0-t) / Cmax / Tmax / half-life: rat
Method: Liquid-liquid extraction was employed for processing samples of quercetin and t-res in rat serum. CS/QC samples were prepared using 10 μL of sample and 90 μL of control serum or 100 μL serum (in vivo) samples were treated with 100 μL of 1 mg/mL β-glucuronidase enzyme in 100 mM ammonium acetate buffer (pH 5) and incubated for 2 h at 37 °C. The reaction mixtures were precipitated with 200 μL of 0.1% FA in methanol-containing IS (FFA). Samples were vortexed for 5 min at 2000 rpm, and then ethyl acetate was added, the sample was vortexed and centrifuged at 10,000 rpm for 10 min. The organic layer was then collected and dried at 37 °C using a TurboVap and nitrogen stream. The dried residues were reconstituted with mobile phase and injected into LC-MS/MS for analysis.
The pharmacokinetic study of quercetin and t-res was performed by an oral administration of EECQ extract (400 mg/kg) in male SD rats (n = 6). The EECQ oral dose was selected based on our previous publication. […] Blood samples were collected from the retro-orbital plexus of rats at predetermined time points 0.25, 0.5, 1, 2, 4, 8, 12, 24, and 48 h after oral administration. Serum was obtained by centrifuging the blood and samples were stored at −80 °C until analysis. Serum samples were processed using the LLE extraction mentioned in Section 4.6 and analyzed using the validated LC-MS/MS method. The non-compartment model was used to calculate the pharmacokinetic (PK) parameters for quercetin and t-res using WinNonlin 6.3 software (Pharsight Corporation, Saint Louis, MO, USA). The PK parameters were estimated, including Cmax, maximum plasma concentration; t1/2, half-life; Tmax, time to reach Cmax; CL/F, clearance and Vd/F, apparent volume of distribution. AUC0–t (area under the concentration curve from zero time point to the last time point) was determined with the trapezoidal rule up to the last measured plasma concentration, Clast. AUC0–∞ (AUC curve from zero time point to infinity) was determined by adding AUC0–t and Clast/Ke.

Plasma stability = type: in vitro ADME; details: rat, 37 °C
Method: The preincubation of rat plasma was done for 5 min at 37 °C. After pre-incubation, quercetin and t-res were added to plasma at a concentration of 100 µg/mL, and reaction tubes were incubated for 3 h in a shaking water bath at 37 °C. Aliquots were collected at predetermined timepoints of 0, 5, 15, 30, 45, 60, 90, 120, and 180 min. Plasma samples were processed immediately using the extraction method mentioned in Section 4.6. The % remaining of the drug at various time intervals relative to the initial time point (time 0) was used to calculate the plasma stability.

[4] = parameters: method as in Meng-xiang Su et al. (2011) [47]; details: rat plasma, oral, 0.6 mg/kg; ref Meng-xiang Su et al. (2011) [47]; cited from earlier work
[5] = Stability in simulated gastric fluid (SGF, pH 1.2); type: in vitro ADME; details: 100 μg/mL, SGF pH 1.2, 37 °C, 0–60 min
Method: (§1) The stability of quercetin and t-res was tested at 100 μg/mL in simulated gastric (SGF, pH 1.2) and intestinal (SIF, pH 6.8) fluids (n = 3). The manufacturer’s protocol was followed to prepare biorelevant media with enzymes. Quercetin and t-res were exposed to SGF and SIF buffers with and without enzymes and incubated in a shaking water bath at 37 °C. 100 μL samples were collected at specific intervals (0–60 min for SGF and 0–180 min for SIF). At a concentration of 100 µg/mL samples were extracted using ACN containing I.S (1:2, v/v), vortexed for 5 min, and then centrifuged at 10,000 rpm for 5 min [52]. The supernatant of the samples was utilized for LC-MS/MS analysis. The % remaining of quercetin and t-res was calculated to determine the stability using Equation (1). (1) % Drug remaining=Concentration of drug at time t/Concentration of drug at time 0×100

[6] = parameters: method as in Dinesh Kumar V et al. (2014) [48]; details: rat plasma, oral, 25 mg/kg, ref Dinesh Kumar V et al. (2014) [48], cited from earlier work
[7] = Stability in simulated intestinal fluid (SIF, pH 6.8); type: in vitro ADME; details: 100 μg/mL, SIF pH 6.8, 37 °C, 0–180 min
Method: as §1

[8] = Metabolic stability in rat liver microsomes (RLM); details: RLM 0.5 mg/mL, 100 µg/mL, 1 mM NADPH, up to 60 min
Method: as §2

[9] = nominal conc. 203 ng/mL (204 for trans-resveratrol)

SMILES	Autosampler stability, accuracy ([1]; nominal conc. 30 ng/mL)	Autosampler stability, measured conc. ([1]; nominal conc. 30 ng/mL)	Autosampler stability, accuracy [1, 9]	Autosampler stability, measured conc. [1, 9]	Autosampler stability, accuracy ([1]; nominal conc. 375 ng/mL)	Autosampler stability, measured conc. ([1]; nominal conc. 375 ng/mL)	Benchtop stability, accuracy ([1]; nominal conc. 30 ng/mL)	Benchtop stability, measured conc. ([1]; nominal conc. 30 ng/mL)	Benchtop stability, accuracy [1, 9]	Benchtop stability, measured conc. [1, 9]	Benchtop stability, accuracy ([1]; nominal conc. 375 ng/mL)	Benchtop stability, measured conc. ([1]; nominal conc. 375 ng/mL)	Freeze-thaw stability, accuracy ([1]; nominal conc. 30 ng/mL)	Freeze-thaw stability, accuracy [1, 9]	Freeze-thaw stability, measured conc. [1, 9]	Freeze-thaw stability, accuracy ([1]; nominal conc. 375 ng/mL)	Freeze-thaw stability, measured conc. ([1]; nominal conc. 375 ng/mL)	Long-term stability, accuracy ([1]; nominal conc. 30 ng/mL)	Long-term stability, measured conc. ([1]; nominal conc. 30 ng/mL)	Long-term stability, accuracy [1, 9]	also measured
Oc1ccc(/C=C/c2cc(O)cc(O)c2)cc1 [trans-Resveratrol, trans-resveratrol]	94.53%	28.36 ± 2.19 ng/mL	93.73%	190.28 ± 13.20 ng/mL	99.51%	373.15 ± 5.84 ng/mL	95.08%	28.52 ± 3.05 ng/mL	93.36%	189.53 ± 8.81 ng/mL	98.17%	368.13 ± 12.29 ng/mL	91.32%	93.32%	189.43 ± 17.82 ng/mL	98.11%	367.92 ± 11.94 ng/mL	101.68%	30.50 ± 2.53 ng/mL	93.14%	Long-term stability, measured conc. [1, 9]: 189.08 ± 14.18 ng/mL; Long-term stability, accuracy ([1]; nominal conc. 375 ng/mL): 97.67%; Long-term stability, measured conc. ([1]; nominal conc. 375 ng/mL): 366.25 ± 11.38 ng/mL; Phase I metabolism in RLM [2]: no phase I metabolism was observed; Phase I metabolism in RLM ([2]; 100 µg/mL, pH 7.4): no phase-1 metabolism observed; AUC(0-inf) ([3]; 400 mg/kg): 157 ± 21.1 ng·h/mL; AUC(0-t) ([3]; male SD rats): 145 ± 20.8 ng·h/mL; Cmax ([3]; male SD rats): 56.4 ± 13.1 ng/mL; Tmax ([3]; male SD rats): 0.58 ± 0.2 h; half-life ([3]; male SD rats): 1.51 ± 0.4 h; remaining at 3 h, 100 µg/mL (Plasma stability): 84.4%; AUC(0–t) [4]: 2835 ± 1655 ng·min/mL; Cmax [4]: 23 ± 8 ng/mL; half-life [4]: 0.6 ± 0.1 h
O=c1c(O)c(-c2ccc(O)c(O)c2)oc2cc(O)cc(O)c12 [Quercetin]	92.56%	27.77 ± 1.50 ng/mL	89.32%	181.31 ± 8.65 ng/mL	99.44%	372.92 ± 2.21 ng/mL	90.29%	27.09 ± 1.67 ng/mL	90.96%	184.64 ± 7.16 ng/mL	98.96%	371.12 ± 2.43 ng/mL	98.12%	93.68%	190.17 ± 8.97 ng/mL	98.63%	369.86 ± 4.43 ng/mL	100.22%	30.07 ± 2.06 ng/mL	98.38%	Stability in SGF [5]: Moderate instability; Stability in rat serum at variable storage conditions ([1]; autosampler, benchtop, freeze-thaw, long-term): stable; Freeze-thaw stability, measured conc. ([1]; nominal conc. 30 ng/mL): 29.44 ± 2.73 ng/mL; Long-term stability, measured conc. [1, 9]: 199.71 ± 8.70 ng/mL; Long-term stability, accuracy ([1]; nominal conc. 375 ng/mL): 99.48%; Long-term stability, measured conc. ([1]; nominal conc. 375 ng/mL): 373.05 ± 10.65 ng/mL; AUC(0-inf) ([3]; 400 mg/kg): 471 ± 51.5 ng·h/mL; AUC0–∞ ([3]; male SD rats, 400 mg/kg): 474.23 ± 51.49 ng·h/mL; AUC(0-t) ([3]; male SD rats): 447 ± 47 ng·h/mL; Cmax ([3]; male SD rats): 57.6 ± 14.3 ng/mL; Tmax ([3]; male SD rats): 1.17 ± 0.41 h; half-life ([3]; male SD rats): 4.91 ± 0.69 h; remaining at 3 h, 100 µg/mL (Plasma stability): 83.4%; AUC(0–t) [6]: 3283.75 ng·h/mL; Tmax [6]: 4.00; plasma half-life [6]: 4.96 h; Cmax ([6]; in ng/mL): 369.20; Stability in SIF [7]: stable; % remaining in RLM [8]: 53.78
